Test results published in patent US20030083374A1, “NAALADase inhibitors useful as pharmaceutical compounds and compositions” (priority 1998, published 2003).

Assays:
rat MCAO model of stroke = assay: in vivo assay on brain injury following MCAO; set-up: species or system Sprague-Dawley rats
Protocol: The control group received Hepes buffered saline.
Four drug treated groups received Compound 1. For each rat, the treatment was initiated at 60 minutes post middle cerebral artery occlusion (MCAO) by an IV bolus injection which was immediately followed by IV infusion for 4 hours at rate of 0.5 ml/hr. Group 1 (n=9) received a dose of 100 mg/kg IV bolus followed by 20 mg/kg/hr IV infusion for 4 hours. Group 2 (n=11) received a dose of 30 mg/kg IV bolus followed by 6 mg/kg/hr IV infusion for 4 hours. Group 3 (n=9) received a dose of 10 mg/kg IV bolus followed by 2 mg/kg/hr IV infusion for 4 hours. Group 3 rats were also treated at 120 minutes, 180 minutes and 360 minutes post-occlusion. Group 4 (n=8) received a dose of 3 mg/kg IV bolus followed by […] IV infusion for 4 hours.
Two additional drug treated groups received 2-(3-sulfanylpropyl)pentanedioic acid. For each rat, the treatment was initiated at 120 minutes post middle cerebral artery occlusion (MCAO) by an IV bolus injection which was immediately followed by IV infusion for 4 hours at rate of 0.5 ml/hr. Group 5 received a dose of 30 mg/kg IV bolus followed by 6 mg/kg/hr IV infusion for 4 hours. Group 6 received a dose of 10 mg/kg IV bolus followed by 2 mg/kg/hr IV infusion.
Twenty two hours following the reperfusion, the rats were euthanized and their brains were removed. Seven coronal sections (2 mm thick) were taken and stained with 1% solution of 2,3,5-triphenyl-tetraxolium chloride (TTC) for 20 minutes and then fixed in 10% formalin. The anterior and posterior surface of the most rostral brain section and the posterior surface of each of the remaining 6 sections were imaged. The quantification of infarct size of each brain was obtained using a computer aided-digital imaging analysis system (LOATS). The brain regions completely lacking TTC-staining were characterized as representative of infarcted tissue. The total infarct volume for each rat was calculated by numeric integration of the respective sequential brain areas.
Male Sprague-Dawley rats (260-320 g) were used. They were individually housed and allowed free access to food and water. Two days prior to the experiment, they were given restricted food if necessary to maintain the body weight Each rat received two surgeries: femoral vein cannulation for IV infusion and MCAO. During surgeries, the rat was anesthetized with 1.5% halothane delivered in oxygen via an inhalation mask. The body temperature was monitored and regulated at normothermic level using a homeothermic heating system. First, a catheter was inserted into the left femoral vein. Thirty minutes later, the rat was reanesthetized for MCAO surgery. The MCAO was achieved using the endovascular suture method described by Long et al., Stroke, Vol. 20, pp. 84-91 (1989). Specifically, the right external carotid artery (ECA) was exposed, coagulated and transected. A 3-0 monofilament nylon suture with a blunted tip and a coat of 0.05% Poly-1-Lysine was introduced into the proximal stump of the ECA via an arteriotomy. It was advanced 22 mm from the carotid bifurcation until it lodged in the proximal region of the anterior cerebral artery, thereby occluding the origin of the MCA. The rats were allowed to wake up; 2 hours later, the rats were reanesthetized for reperfusion, during which the nylon suture was retracted to the stump of the ECA allowing blood recirculation to the MCA.

[1] = system: STZ-induced diabetic rats; assay: in vivo assay on neuropathic pain in STZ-diabetic rats (Hargreaves); set-up: species or system Male Sprague-Dawley rats; details: 10 mg/kg i.p. daily, started 45 days post-STZ
Protocol: Male Sprague-Dawley rats (200-225 g) were rendered diabetic by intravenous administration of streptozotocin (STZ, 70 mg/kg in phosphate buffered saline). Diabetic animals were divided into five groups: one group receiving Compound 2 (10 mg/kg or 1 mg/kg), Compound 1 (10 mg/kg or 1 mg/kg) or vehicle. Another group of animals (non-STZ treated) served as non-diabetic controls. Drug/vehicle treatment was started in diabetic animals 45 days post-STZ administration. STZ-induced diabetic rats were tested for sensitivity to a heat source as soon as blood glucose levels rose to 320 mg/dl or above (30 days post STZ). The rats were then acclimated to the Hargreaves apparatus and thermal nociception was monitored using an infrared heat source directed into the […] surface of the hindpaw, and the time taken for the animal to remove its paw noted to the nearest 0.1 seconds (see Hargreaves et al. 1998 for detailed method). The intensity of the beam source was adjusted such that the mean latency for control animals (non-STZ treated) was approximately 10 seconds. Each animal was tested 8 times and the mean difference score (between mean non-diabetic control latency and mean diabetic latency) are graphically presented in FIGS. 19A and 19B.

BB/W diabetic rats = assay: nerve conduction velocity in BB/W diabetic rats; type: in vivo, Male BB/W rats; details: 10 mg/kg daily; starting at 8 weeks, through six months
Text: Male BB/W rats (BR1, Mass) spontaneously develop a cell mediated autoimmune destruction of pancreatic B cells, resulting in onset of insulin-dependent (Type I) diabetes (Guberski 1994). […] This renders them valuable for experimental trials of new compounds for future treatments of this major disorder. In the present study, Compound 1 and Compound 2 were examined for their ability to alter the progression of diabetic neuropathy. The rats received daily injection of Compound 1 or Compound 2 (10 mg/kg i.p.) or vehicle, starting at the onset of diabetes (hyperglycemia) and up to 6 months thereafter. Another group of non-diabetic rats also receiving vehicle were tested. All animals were continuously monitored for body weight, urine volume, blood sugar and glycated haemoglobin. In the first month of the study, all animals were tested for thermal nociception in a Hargreaves apparatus, weekly. After the first month this was done biweekly and then monthly. The testing consists of directing an infrared heat source onto the […] surface of the rat hindpaw and noting the time taken for the animal to remove its paw (for detailed method see Hargreaves et al. 1998). […]
Nerve conduction velocity was also measured every two weeks through the first eight weeks of treatment and every month thereafter through to the six months of treatment (see De Koning et al. 1987 for method details). […]

PCP-treated rats = assay: in vivo assay on schizophrenia (PCP model); details: 50 mg/kg i.p. before PCP (5 mg/kg)
Protocol: Rats treated with PCP develop symptoms, such as frantic running and incessant head-turning, that parallel psychotic symptoms in humans. Thus, to examine the effects of NAALADase inhibition on schizophrenia, rats were treated intraperitoneally with Compound 1 (50 mg/kg), Compound 2 (50 mg/kg) or a vehicle (H2O) before they received PCP (5 mg/kg). Head rolling scores were measured for over 2 hours following PCP injection.

SMILES: O=C(O)CCC(CCS)C(=O)O (centres unmarked) [Compound 1, 2-(2-sulfanylethyl)pentanedioic acid]
- mean total brain infarct volume (rat MCAO model of stroke; Group 1: 100 mg/kg IV bolus + 20 mg/kg/hr IV infusion 4 hours, 60 minutes post MCAO): 123±31 mm^3
- mean total brain infarct volume (rat MCAO model of stroke; Group 2: 30 mg/kg IV bolus + 6 mg/kg/hr IV infusion 4 hours, 60 minutes post MCAO): 141±78 mm^3
- mean total brain infarct volume (rat MCAO model of stroke; Group 3: 10 mg/kg IV bolus + 2 mg/kg/hr IV infusion 4 hours, treated at 60 minutes post-occlusion): 152±32 mm^3
- mean total brain infarct volume (rat MCAO model of stroke; Group 4: 3 mg/kg IV bolus + 3 mg/kg/hr IV infusion 4 hours, 60 minutes post MCAO): 117±22 mm^3
- neuroprotection in rat MCAO model of stroke (rat MCAO model of stroke; administered 60, 120, 180 and 360 minutes post-occlusion): neuroprotective
- % Protect (rat MCAO model of stroke; dose 1 mg/kg, 60 minutes post MCAO): 20%
- % Protect (rat MCAO model of stroke; dose 3 mg/kg, 60 minutes post MCAO): 52%
- % Protect (rat MCAO model of stroke; dose 10 mg/kg, 60 minutes post MCAO): 50%
- % Protect (rat MCAO model of stroke; dose 10 mg/kg, 120 minutes post MCAO): 33%
- % Protect (rat MCAO model of stroke; dose 10 mg/kg, 180 minutes post MCAO): 47%
- % Protect (rat MCAO model of stroke; dose 10 mg/kg, 360 minutes post MCAO): 50%
- % Protect (rat MCAO model of stroke; dose 30 mg/kg, 60 minutes post MCAO): 52%
- % Protect (rat MCAO model of stroke; dose 100 mg/kg IV bolus, 60 minutes post MCAO): 44%
- infarct size vs. vehicle treated rats (rat MCAO model of stroke; four Compound 1 treated groups): significantly smaller infarct size
- hyperalgesic response in diabetic rats [1]: completely reversed
- nerve conduction deficits vs. diabetic controls receiving vehicle (BB/W diabetic rats): significantly less severe nerve conduction deficits
- locomotor-activating effects of PCP (head rolling scores) (PCP-treated rats): significantly reduced
